Test system: Akt phosphorylation in Molt-4 (PTEN-/SHIP1+) cells
Test: Akt phosphorylation in lymphocytes (Western blot, IGF-1 stimulated)
Type: cell-based
Design: key: +: inhibits Akt phosphorylation at 30 μM; −: no effect on Akt phosphorylation at 30 μM
Conditions: 30 μM; Molt-4 (SHIP1+) cells, IGF-1 100 ng/mL
Procedure: Molt-4 (PTEN-/SHIP1+) cells are starved in serum free RPMI for overnight. In a 15 mL conical tube, 2-3 million serum starved cells (1 million cells per mL) are treated with various concentrations of test compound ([…]) for 30 min at 37° C. followed by stimulation with 100 ng/mL of IGF-1 for 1 hour at 37° C. After stimulation, cells are washed once with ice-cold DPBS and lysed with Lysis Buffer (20 mM Tris-HCl, pH 7.5, 140 mM NaCl, 1% NP-40, Complete Mini Protease Inhibitor Cocktail, 10 mM NaF, 1 mM Na3VO4, 1 mM β-glycerolphosphate) on ice for 30 min with vortexing every 10 min. Samples are then centrifuged at 13,000 rpm for 20 min, and supernatants are collected as total cell lysate samples. Protein concentration is determined using bicinchonic acid assay, and about 15 μg of total protein from each sample is loaded and separated on a 4-12% Tris-Glycine gel. After SDS-PAGE, proteins are transferred from the gel to a nitrocellulose membrane. The membrane is blocked in 5% BSA in PBS containing 0.1% Tween-20 (PBS-T) for 1 hour at room temperature before probing with primary antibodies for overnight at 4° C. The following antibodies are used: mouse anti-SHIP1 (1:500 dilution; Santa Cruz, Calif., USA), rabbit anti-phospho-Akt (Ser473) (1:1000 dilution; Cell Signaling Technologies, MA, USA), rabbit anti-Akt (1:1000; Cell Signaling Technologies, MA, USA), and rabbit anti-actin (1:2000; Cell Signaling Technologies, MA, USA). The membrane is then incubated with goat anti-rabbit or anti-mouse secondary antibodies (1:3000) for 1 hour at room temperature. Target proteins on the membrane are detected with ECL solution and exposed on a film.

SMILES	Molt-4 (SHIP+): inhibition of Akt phosphorylation
CN(C)C[C@H]1C2=C(CC[C@@H]1[C@@]1(C)CC[C@H](O)C[C@@H]1CO)C(C)(C)CC2 [Cpd. No. 3, (1S,3S,4R)-4-((4R,5S)-4-((dimethylamino)methyl)-1,1-dimethyl-2,3,4,5,6,7-hexahydro-1H-inden-5-yl)-3-(hydroxymethyl)-4-methylcyclohexanol]	+
C=C1CC[C@H]2[C@H](O)[C@@H]([C@@]3(C)CC[C@H](O)C[C@@H]3CCN3CCCC3)CC[C@]12C [Cpd. No. 11, (3aR,4R,5R,7aS)-5-((1S,2S,4S)-4-hydroxy-1-methyl-2-(2-(pyrrolidin-1-yl)ethyl)cyclohexyl)-7a-methyl-1-methyleneoctahydro-1H-inden-4-ol]	+
C=C1CC[C@H]2[C@H](CNC(=O)C(C)(C)C)[C@@H]([C@@]3(C)CC[C@H](O)C[C@@H]3CO)CC[C@]12C [Cpd. No. 20, N-(((3aS,4R,5S,7aS)-5-((1R,2S,4S)-4-hydroxy-2-(hydroxymethyl)-1-methylcyclohexyl)-7a-methyl-1-methyleneoctahydro-1H-inden-4-yl)methyl)pivalamide]	+
C=C1CC[C@H]2[C@H](CNC(=O)C(C)C)[C@@H]([C@@]3(C)CC[C@H](O)C[C@@H]3CO)CC[C@]12C [Cpd. No. 21, N-(((3aS,4R,5S,7aS)-5-((1R,2S,4S)-4-hydroxy-2-(hydroxymethyl)-1-methylcyclohexyl)-7a-methyl-1-methyleneoctahydro-1H-inden-4-yl)methyl)isobutyramide]	+
C=C1CC[C@H]2[C@H](CNC(=O)CC)[C@@H]([C@@]3(C)CC[C@H](O)C[C@@H]3CO)CC[C@]12C [Cpd. No. 22, N-(((3aS,4R,5S,7aS)-5-((1R,2S,4S)-4-hydroxy-2-(hydroxymethyl)-1-methylcyclohexyl)-7a-methyl-1-methyleneoctahydro-1H-inden-4-yl)methyl)propionamide]	+
C=C1CC[C@H]2[C@H](CNC(=O)CCC)[C@@H]([C@@]3(C)CC[C@H](O)C[C@@H]3CO)CC[C@]12C [Cpd. No. 23, N-(((3aS,4R,5S,7aS)-5-((1R,2S,4S)-4-hydroxy-2-(hydroxymethyl)-1-methylcyclohexyl)-7a-methyl-1-methyleneoctahydro-1H-inden-4-yl)methyl)butyramide]	+
C=C1CC[C@H]2[C@H](CNC(=O)CCCC)[C@@H]([C@@]3(C)CC[C@H](O)C[C@@H]3CO)CC[C@]12C [Cpd. No. 24, N-(((3aS,4R,5S,7aS)-5-((1R,2S,4S)-4-hydroxy-2-(hydroxymethyl)-1-methylcyclohexyl)-7a-methyl-1-methyleneoctahydro-1H-inden-4-yl)methyl)pentanamide]	+
C=C1CC[C@H]2[C@H](CCN)[C@@H]([C@@]3(C)CC[C@H](O)C[C@@H]3CO)CC[C@]12C [Cpd. No. 29, (1S,3S,4R)-4-((3aS,4R,5S,7aS)-4-(2-aminoethyl)-7a-methyl-1-methyleneoctahydro-1H-inden-5-yl)-3-(hydroxymethyl)-4-methylcyclohexanol]	+
C=C1CC[C@H]2[C@H](CNCc3cc(OC)cc(OC)c3)[C@@H]([C@@]3(C)CC[C@H](O)C[C@@H]3CO)CC[C@]12C [Cpd. No. 32, (1S,3S,4R)-4-((3aS,4R,5S,7aS)-4-((3,5-dimethoxybenzylamino)methyl)-7a-methyl-1-methyleneoctahydro-1H-inden-5-yl)-3-(hydroxymethyl)-4-methylcyclohexanol]	+
C=C1CC[C@H]2[C@H](CNCc3ccc4c(c3)OCO4)[C@@H]([C@@]3(C)CC[C@H](O)C[C@@H]3CO)CC[C@]12C [Cpd. No. 34, (1S,3S,4R)-4-((3aS,4R,5S,7aS)-4-((benzo[d][1,3]dioxol-5-ylmethylamino)methyl)-7a-methyl-1-methyleneoctahydro-1H-inden-5-yl)-3-(hydroxymethyl)-4-methylcyclohexanol]	+
C=C1CC[C@H]2[C@H](O)[C@@H]([C@@]3(C)CC[C@H](O)C[C@@H]3CCN3CCN(C)CC3)CC[C@]12C [Cpd. No. 48, (3aR,4R,5R,7aS)-5-((1S,2S,4S)-4-hydroxy-1-methyl-2-(2-(4-methylpiperazin-1-yl)ethyl)cyclohexyl)-7a-methyl-1-methyleneoctahydro-1H-inden-4-ol]	+
C=C1CC[C@H]2[C@H](O)[C@@H]([C@@]3(C)CC[C@H](O)C[C@@H]3CCn3ccnc3)CC[C@]12C [Cpd. No. 50, (3aR,4R,5R,7aS)-5-((1S,2S,4S)-2-(2-(1H-imidazol-1-yl)ethyl)-4-hydroxy-1-methylcyclohexyl)-7a-methyl-1-methyleneoctahydro-1H-inden-4-ol]	+
C=C1CC[C@H]2[C@H](O)[C@@H]([C@@]3(C)CC[C@H](O)C[C@@H]3CCOc3ccccn3)CC[C@]12C [Cpd. No. 57, (3aR,4R,5R,7aS)-5-((1S,2S,4S)-4-hydroxy-1-methyl-2-(2-(pyridin-2-yloxy)ethyl)cyclohexyl)-7a-methyl-1-methyleneoctahydro-1H-inden-4-ol]	+
C=C1CC[C@H]2[C@H](CNC(=O)c3ccco3)[C@@H]([C@@]3(C)CC[C@H](O)C[C@@H]3CO)CC[C@]12C [Cpd. No. 81, N-(((3aS,4R,5S,7aS)-5-((1R,2S,4S)-4-hydroxy-2-(hydroxymethyl)-1-methylcyclohexyl)-7a-methyl-1-methyleneoctahydro-1H-inden-4-yl)methyl)furan-2-carboxamide]	+
C=C1CC[C@H]2[C@H](CNC(=O)C3CC3)[C@@H]([C@@]3(C)CC[C@H](O)C[C@@H]3CO)CC[C@]12C [Cpd. No. 82, N-(((3aS,4R,5S,7aS)-5-((1R,2S,4S)-4-hydroxy-2-(hydroxymethyl)-1-methylcyclohexyl)-7a-methyl-1-methyleneoctahydro-1H-inden-4-yl)methyl)cyclopropanecarboxamide]	+
C=C1CC[C@H]2[C@H](CNC(=O)C3CCCCC3)[C@@H]([C@@]3(C)CC[C@H](O)C[C@@H]3CO)CC[C@]12C [Cpd. No. 83, N-(((3aS,4R,5S,7aS)-5-((1R,2S,4S)-4-hydroxy-2-(hydroxymethyl)-1-methylcyclohexyl)-7a-methyl-1-methyleneoctahydro-1H-inden-4-yl)methyl)cyclohexanecarboxamide]	+
C=C1CC[C@H]2[C@H](CNC(=O)NCC)[C@@H]([C@@]3(C)CC[C@H](O)C[C@@H]3CO)CC[C@]12C [Cpd. No. 84, 1-ethyl-3-(((3aS,4R,5S,7aS)-5-((1R,2S,4S)-4-hydroxy-2-(hydroxymethyl)-1-methylcyclohexyl)-7a-methyl-1-methyleneoctahydro-1H-inden-4-yl)methyl)urea]	+
C=C1CC[C@H]2[C@H](CNC(=S)NC)[C@@H]([C@@]3(C)CC[C@H](O)C[C@@H]3CO)CC[C@]12C [Cpd. No. 85, 1-(((3aS,4R,5S,7aS)-5-((1R,2S,4S)-4-hydroxy-2-(hydroxymethyl)-1-methylcyclohexyl)-7a-methyl-1-methyleneoctahydro-1H-inden-4-yl)methyl)-3-methylthiourea]	+
C=C1CC[C@H]2[C@H](CNC(=O)C(F)(F)F)[C@@H]([C@@]3(C)CC[C@H](O)C[C@@H]3CO)CC[C@]12C [Cpd. No. 86, 2,2,2-trifluoro-N-(((3aS,4R,5S,7aS)-5-((1R,2S,4S)-4-hydroxy-2-(hydroxymethyl)-1-methylcyclohexyl)-7a-methyl-1-methyleneoctahydro-1H-inden-4-yl)methyl)acetamide]	+
C=C1CC[C@H]2[C@H](CC#N)[C@@H]([C@@]3(C)CC[C@H](O)C[C@@H]3CO)CC[C@]12C [Cpd. No. 87, 2-((3aS,4R,5S,7aS)-5-((1R,2S,4S)-4-hydroxy-2-(hydroxymethyl)-1-methylcyclohexyl)-7a-methyl-1-methyleneoctahydro-1H-inden-4-yl)acetonitrile]	+
C=C1CC[C@H]2[C@H](CNOC)[C@@H]([C@@]3(C)CC[C@H](O)C[C@@H]3CO)CC[C@]12C [Cpd. No. 88, (1S,3S,4R)-3-(hydroxymethyl)-4-((3aS,4R,5S,7aS)-4-((methoxyamino)methyl)-7a-methyl-1-methyleneoctahydro-1H-inden-5-yl)-4-methylcyclohexanol]	+
C=C1CC[C@H]2[C@H](CNC#N)[C@@H]([C@@]3(C)CC[C@H](O)C[C@@H]3CO)CC[C@]12C [Cpd. No. 89, N-(((3aS,4R,5S,7aS)-5-((1R,2S,4S)-4-hydroxy-2-(hydroxymethyl)-1-methylcyclohexyl)-7a-methyl-1-methyleneoctahydro-1H-inden-4-yl)methyl)cyanamide]	+
